What all share (type): cell-based, Human
For one data set, the system named is HB4A. Put plainly: Quantification of CMP-Neu5Ac, UDP-GlcNAc, surface Neu5Ac and surface Neu5Gc (HPLC). The protocol: (§1) Protocol for nutrient deprivation of cells in suspension: Step 1, cell cultures were harvested as described above. Step 2, cells were resuspended in serum-free RPMI-1640 medium and pelleted by centrifugation at 900×g for 5 min; during this step cells experience 10 min of nutrient deprivation in serum-free media without Neu5Ac. Step 3, the cells were rinsed twice in 37° C. PBS by centrifugation for 5 min and 1 mL aliquots of 1×10^4 cells were pipetted gently into 15 mL BD Falcon tubes; during this step the cells experience an additional 20 min of nutrient-deprivation. Step 3, cell suspension aliquots corresponding to […] were equilibrated in tubes containing Neu5Ac-PBS buffer by placing the tubes with opened caps for 60 min in a humidified incubator at 37° C. and 5% CO2 with continuous shaking at 30 strokes per minute; during this Neu5Ac-supplementation step, negative controls were maintained in non-supplemented PBS. Step 4, the Neu5Ac-PBS solution was decanted, the tubes were gently tapped to loosen the gravity-pelleted cells, and then rinsed twice in warm (37° C.) PBS followed by pelleting by 5 min of centrifugation each time, this process provided an additional 30 min of nutrient-deprivation in the absence of supplemental Neu5Ac. The entire 5 step process results in 2 h of nutrient deprivation, after which the cells were analyzed by the methods listed below with the exception of the wound healing assays and lectin staining which used cells that were nutrient-deprived under adherent conditions. Protocol for nutrient deprivation of adherent cells. Step 1, cells were cultured on sterile glass microscope cover slips for two days. Step 2, the cover slips were placed in a sterile plastic rack in warm (37° C.) PBS buffer for 30 min, then the PBS was replaced with Neu5Ac-PBS solution for 60 min to provide Neu5Ac supplementation (controls were maintained in non-supplemented PBS), and then the cell-laden cover slips were placed back in PBS buffer for 30 min. All incubations were performed in a humidified incubator at 37° C. and 5% CO2 with continuous shaking at 30 strokes per minute. Overall this process mimics the non-adherent treatment conditions with respect to the duration of nutrient-deprivation (2 h total) and Neu5Ac supplementation (60 min).
(§2) Cells were split and cultured (before feeding experiments) in RPMI1640 medium supplemented with 1% heat-inactivated human serum (RPMI/HUS) instead of FBS, resulting in chase-out of existing Neu5Gc. Subsequently, cells were fed with 10 mM Neu5Gc in RPMI/HUS medium or under nutrient deprived conditions as described above.
(§3) PBS-washed cells (1 Million) (untreated or Neu5Ac treated) were lysed by hypotonic shock in 1 mL water (15 min, 4° C.). The intracellular cytidine-5′-monophospho-N-acetylneuraminic acid (CMP-Neu5Ac) and uridine-5′-diphospho-N-acetyl-D-glucosamine (UDP-GlcNAc) were purified from the cell lysates and analyzed by ion-pair reversed-phase high performance liquid chromatography (IP RP HPLC) using a ODS column as described. Cell membrane-bound Neu5Ac (from untreated and Neu5Ac treated) and Neu5Gc (from untreated and Neu5Gc treated) were determined by acid hydrolysis followed by derivatization with 1,2-diamino-4,5-methylenedioxybenze (DMB) and HPLC separation as previously described. The content of CAMP-Neu5Ac, UDP-GlcNAc, surface Neu5Ac, and surface Neu5Gc was shown in nano mole per mg cell protein from five independent experiments.
(§4) Table-1: Quantification of nucleotide sugars, surface Nec5Ac, UDP-GlcNAc, Neu5Gc: Cells were treated in the presence and absence of 10 mM Nue5Ac for 2 h under nutrient deprivation and quantity of CMP-Neu5Ac (A), surface Neu5Ac (B), and UDP-GlcNAc (C) were determined. D. For quantification of surface Neu5Gc cells were treated with 10 mM Neu5Gc for 2 hrs under nutrient deprivation. The content of CMP-Neu5Ac, UDP-GlcNAc and Neu5Gc was shown in nano mole per mg cell protein from 5 independent experiments.

A further data set deals with MCF10A. The data set is described as above. Here is the method: as §1, §2, §3, §4
The test system of a further data set is MCF7. Described as above. The protocol:
as §1, §2, §3, §4

The next data set relates to MDA MB231. The data set is described as above. The protocol: as §1, §2, §3, §4
The subject of another data set is T47D. The data set is described as above. The protocol:
as §1, §2, §3, §4

A further data set has as its system MDA MB231 cells. Put plainly: Microarray of genes upregulated after sialic acid treatment under nutrient deprivation. Here is the method: The membrane glycosylation of the cancer cells is synchronized by the alteration of gene expression. The microarray was performed aiming to identify the genes that had undergone changes induced by the enriched sugar environment. […] Inventors examined the status of the expression of those genes at both transcriptional and translational level, in another word, at mRNA and protein level by performing the quantitative real time polymerase chain reaction (qRT-PCR) and immunoblot. Remarkably, qRT-PCR and Western blot are 2 techniques that are used to quantify the expression of mRNA and protein. Data of qRT-PCR and Western blot were in strong agreement with the microarray data indicating a clear link between the expression of those genes and glycosylation of cell membrane domain. This patent aims to pursue the cancer cell management by targeting those genes at mRNA and protein level. Small interference RNA (siRNA) and small hairpin RNA (shRNA) will be designed to knockdown the mRNA. Similarly, the functions of the genes at protein level will be inhibited or disrupted by using antibody, small peptide, pharmaceutical blocker, and targeted toxin. Regression of cancer cells will be verified following transcriptional and translational manipulation.

Data set [1] relates to cancer and normal control cells. Briefly: TUNEL assay flow cytometry of apoptosis after sialic acid treatment. Here is the method: For this purpose, cells were fixed by suspending them in 70% (v/v) ethanol and stored at 4° C. for 15 min, washed twice with cold PBS, and then placed in 96-well plates (1×10^4 cells per well). The cells were then stained with the fluorescein isothiocyanate-labeled lectins (SWGA, WGA, SNA and MAL-1). For the comparison of mean fluorescence intensities, the instrument settings for fluorescence and compensation were the same for all experiments. Data were collected from at least 10,000 cells for each sample. For TUNEL assay, cells were incubated with DNA-labeling solution (10 μL reaction buffer, 0.75 μL TdT enzyme, 8 μL BrdUTP, 31.25 μL of dH2O) for 1 h at 25° C. Each sample was then exposed to an antibody solution consisting of 5 μL Alexa Fluor 488 labeled anti-BrdU antibody with 95 μL rinse solution and allowed to react for 20 min.
FIG. 6: Optimization of conditions for nutrient deprivation and rescue via sialic acid supplementation. […] Data are the representative of five independent experiments.

The subject of data set [2] is cancer cells T47D, MCF7, MDA MB231. Put plainly: Membrane glycosylation of cancer cells compared to normal control cells (Table 1 summary). The note with it: 10 mM, all the cancer cells compared to control normal cells. The protocol:
as §3
Human normal mammary epithelial cell lines MCF10A and HB4A and breast cancer cell lines T47D, MCF7 and MDA MB231 (American Type Culture Collection, USA) used in the study were cultured and treated according to the methods described earlier. Cells were nutritionally deprived using different time points followed by the sialic acid supplementation according to the method described earlier. […] The data were in strong agreement with the immunoblot data which were derived by assessing different enzymes responsible for glycosylation. […]

Where [3] appears, read: treated with 10 mM Neu5Ac for 2 h under nutrient deprivation.
Where [4] appears, read: MCF7, treated with 10 mM Neu5Ac for 2 h under nutrient deprivation.
Where [5] appears, read: MDA MB231, treated with 10 mM Neu5Ac for 2 h under nutrient deprivation.
The mark [6] stands for this setting: 10 mM sialic acid under nutrient deprivation relative to the untreated control.
[7] abbreviates: treated with 10 mM Neu5Gc for 2 hrs under nutrient deprivation.

As for `CC(=O)N[C@H]1[C@H]([C@H](O)[C@H](O)CO)OC(O)(C(=O)O)C[C@@H]1O` (some centres unmarked) [Neu5Ac, N-acetyl-5-neuraminic acid], in the data set on HB4A (setting [3]), the CMP-Neu5Ac is listed as 0.51 ± 1.33 nano mole per mg cell protein, the UDP-GlcNAc is 5.32 ± 7.41 nano mole per mg cell protein and the “surface Neu5Ac” value was found to be 1.83 ± 2.09. For the same compound, in the data set on MCF10A (setting [3]), the CMP-Neu5Ac is given as 0.45 ± 1.92 nano mole per mg cell protein, the UDP-GlcNAc is recorded as 5.18 ± 2.52 nano mole per mg cell protein and the “surface Neu5Ac” value was 1.81 ± 2.15. Further, in the data set on MCF7 (setting [4]), the CMP-Neu5Ac is reported as 2.253 ± 1.77 nano mole per mg cell protein, the UDP-GlcNAc was 12.40 ± 3.66 nano mole per mg cell protein and the “surface Neu5Ac” value is given as 7.05 ± 3.95. Moreover, in the data set with MDA MB231 (setting [5]), the CMP-Neu5Ac is listed as 2.496 ± 2.63 nano mole per mg cell protein, the UDP-GlcNAc was 12.53 ± 4.2 nano mole per mg cell protein and the “surface Neu5Ac” value worked out at 7.12 ± 4.91. For the same compound, in the data set on T47D (setting [3]), the CMP-Neu5Ac is 1.06 ± 1.42 nano mole per mg cell protein, the UDP-GlcNAc was 6.513 ± 5.3 nano mole per mg cell protein and the “surface Neu5Ac” value is 5.07 ± 4.56. In the data set on MDA MB231 cells (setting [6]), the “Log2 Ratio, CHI3L2” value was 2.68; the “Log2 Ratio, EQTN” value is listed as 3.078; the “Log2 Ratio, OSMR” value was determined as 2.215; the “Log2 Ratio, PCMTD1” value is on record as 2.118. Also, in the data set with MDA MB231 cells (setting [6]), the “Log2 Ratio, PHLDA1” value is listed as 2.626; the “Log2 Ratio, RICTOR” value came to 2.334; the “Log2 Ratio, RSRP1” value is on record as 2.33; the “Log2 Ratio, RUNX2” value is reported as 2.21. Further, in the data set with MDA MB231 cells (setting [6]), the “Log2 Ratio, SCG2” value was 2.171 and the “Log2 Ratio, SEC24D” value is given as 2.199. Besides, the “expression of 10 particular genes in sialic acid treated cancer cells” value with MDA MB231 cells (compared to normal control cells) was “more than 5 folds”. The apoptosis result in data set [1] (180 minutes, both cell types, cancer and normal control cells) was “significant apoptosis”. Besides, the apoptosis result in data set [1] (240 minutes, both cell types, cancer and normal control cells) is “significant apoptosis”. In addition, the apoptosis entry in data set [1] (cells treated for 120 minutes, 10 mM sialic acid, nutrient deprived condition) is listed as “no apoptosis”.

Regarding `O=C(CO)N[C@H]1[C@H]([C@H](O)[C@H](O)CO)OC(O)(C(=O)O)C[C@@H]1O` (some centres unmarked) [Neu5Gc, N-glycolylneuraminic acid], the “surface Neu5Gc” value with HB4A (setting [7]) is given as 0.182 ± 0.73 nano mole per mg cell protein; in the data set with MCF10A (setting [7]), 0.177 ± 0.31 nano mole per mg cell protein; in the data set on MCF7 (MCF7, treated with 10 mM Neu5Gc for 2 hrs under nutrient deprivation), 1.58 ± 0.912 nano mole per mg cell protein; in the data set on MDA MB231 (MDA MB231, treated with 10 mM Neu5Gc for 2 hrs under nutrient deprivation), 1.79 ± 0.982 nano mole per mg cell protein; with T47D (setting [7]) it was 0.608 ± 0.675 nano mole per mg cell protein. Also, the glycosylation of membrane result in data set [2] is given as “upregulated the glycosylation significantly”.

These data come from US20180050055A1, “Exploiting nutrient deprivation for modulation of glycosylation - research diagnostic, therapeutic, and biotechnology applications” (priority 2016, published 2018).
